Legend:
[1] = tested on: severe spinal cord contusion injury in the rat; test: Mechanical sensitivity (von Frey, Up-Down) after severe spinal cord contusion injury, treatment DPO 28-35; assay type: in vivo; settings: for withdrawal threshold (50% threshold force): DPO 28, before start of treatment (group baseline), 15 grams before injury, vehicle group 2.7
Procedure: (§1) Thirteen week-old female Lewis rats (Charles River, Sulzfeld Germany) were housed under a 12:12 h dark/light regime and allowed free access to water and food. After one week of habituation the animals underwent general anesthesia with a mixture of isoflurane and air (induction: 5% isoflurane, maintenance: 2.2% isofluorane). A Th10 laminectomy was performed without rupturing the dura and a severe contusive SCI (25 gem NYU/MASCIS II impactor) (Gruner, 1992 #3) was induced. After suturing muscle and skin, a subcutaneous (s.c.) injection of 5 ml of Ringers Lactate was given. Bladders were emptied manually 2 times a day until spontaneous voiding returned (usually within 1 week). The lesion severity was verified by the impact velocity and contusion depth of the impactor rod. Animals with an impact velocity error >5% were excluded from further analysis. After injury, individual rats were randomly assigned into a treatment group. The following groups were used:
The mechanical sensitivity response was measured as the direct pressure stimulus required eliciting foot withdrawal in nonrestrained conditions. All tests were conducted in the morning between 7:30 and 10:30 am and the person performing the behavioral tests was blinded to the experimental groups. Animals were habituated to the testing apparatus for at least 20 min before testing. Each animal was subjected to the stimulation of a series of von Frey filaments ranging from 0.4 to 15 g (log force 3.61, 3.84, 4.08, 4.31, 4.56, 4.74, 4.93 and 5.18) using the Up-Down paradigm according to Chaplan (Chaplan et al., 1994). The selected von Frey filament was pressed against the plantar surface of the hind paw to the point of 30° bending for 3 s. Paw withdrawal response was considered as the positive response. The 50% threshold force needed for paw withdrawal was calculated for both hind paws of each rat and the mean value of both hind paws was used to represent the mechanical sensitivity of this animal.
(§2) Group 2: SCI+HR 325 (10 mg/kg/day) in vehicle by gavage for 7 days, from DPO 28 till DPO 35
(§3) Group 3: SCI+FK 778 (10 mg/kg/day) in vehicle by gavage for 7 day, from DPO 28 till DPO 35

[2] = tested on: severe spinal cord contusion injury in the rat; test: Acetone test (cold chemical stimulus) after severe spinal cord contusion injury, treatment DPO 28-35; assay type: in vivo; settings: 10 mg/kg/day by gavage DPO 28 till DPO 35
Procedure: as §1, §2, §3
A slightly modified method of De la Calle and colleagues (De la Calle et al., 2002) was used for the determination of the reactivity to a cold chemical stimulus. The rat was placed in acrylic cages on top of a wire mesh grid, which allowed access to the paws, and acetone was applied to the plantar surface of the hind paw. To do this, 100 μl of acetone was sprayed onto the plantar surface of the rat's hind leg from below the grid with a syringe holding 2.5 ml. The time spent with the leg withdrawn from floor during the 60 s following exposure to acetone was recorded. Both hind legs were tested in each animal with an interval of 5-10 min between each test. The average reaction time between the two legs was taken for further analysis. A minimal value of 1 s was assigned to convey a fast or brisk reaction, while 0 was assigned if there was no reaction at all. This acetone test has been described as composing of cold, chemical, and possibly mechanical stimulation.

[3] = tested on: spinal cord contusion injury; test: Mechanical sensitivity (von Frey, Up-Down), chronic central neuropathic pain three months after spinal cord contusion injury, treatment DPO 84-91; assay type: in vivo, rat; settings: DPO 28, before treatment (group baseline, stable up to DPO 84); 15 grams before injury; vehicle group 3.2
Procedure: as §1, with “used: The mechanical sensitivity response was measured as the direct pressure stimulus required eliciting foot withdrawal in nonrestrained conditions. […] The 50% threshold force needed for paw withdrawal was calculated for both hind paws of each rat and the mean value of both hind paws was used to represent the mechanical sensitivity of this animal. […]” for “used:”

[4] = tested on: partial ligation of the sciatic nerve; test: Mechanical sensitivity (von Frey, Up-Down) after partial ligation of the sciatic nerve; assay type: in vivo, rat; settings: DPO 21, after daily oral 10 mg/kg DPO 14 till DPO 21; 60 grams before injury, 19 grams at DPO 14 before treatment; FIG. 8
Procedure: The mechanical sensitivity response was measured as the direct pressure stimulus required eliciting foot withdrawal in nonrestained conditions. Animals were habituated to the testing apparatus for at least 20 min before testing. Each animal was subjected to the stimulation of a series of von Frey filaments ranging from 1.0 to 60 g using the Up-Down paradigm according to Chapter (Chaplan et al., 1994). The selected von Frey filament was pressed against the plantar surface of the hind paw to the point of 30° bending for 3 s. Paw withdrawal response was considered as the positive response. The 50% threshold force needed for paw withdrawal was calculated for both hind paws of each rat. The methods of Seltzer et al. (1990) were followed. The dorsum of the sciatic nerve was carefully freed from surrounding connective tissues at a site near the trochanter just distal to the point at which the posterior biceps semitendinosus nerve branches off the common sciatic nerve. The nerve was fixed in its place by pinching the epineurium on its dorsal aspect, taking care not to press the nerve against underlying structures. An 8-0 (Polyamide 6) suture was inserted into the nerve and tightly ligated so that the dorsal ⅓-½ of the nerve thickness was trapped in the ligature (Seltzer et al., 1990). […]

SMILES	reversal of mechanical allodynia after experimental spinal cord injury (conclusion) ([1]; 10 mg/kg/day by gavage DPO 28 till DPO 35)	withdrawal threshold (50% threshold force) [1]	withdrawal threshold vs vehicle control animals ([1]; DPO 35, 10 mg/kg/day by gavage DPO 28 till DPO 35, one-way ANOVA p<0.001, FIG. 2)	withdrawal threshold, difference to vehicle controls ([1]; end of experiment DPO 77, 10 mg/kg/day by gavage DPO 28 till DPO 35, p<0.001)	reversal of cold allodynia after experimental spinal cord injury (conclusion) [2]	duration of response to acetone exposure vs vehicle controls ([2]; DPO 35, one-way ANOVA p<0.01, FIG. 3)	duration of response to acetone exposure vs vehicle controls ([2]; DPO 56, ANOVA p<0.001, Bonferroni post-hoc)	duration of response to acetone exposure, differences to vehicle controls ([2]; end of experiment DPO 70, p<0.01)	withdrawal threshold (50% threshold force) [3]	withdrawal threshold in the ipsilateral paw [4]
C#CCCC(O)=C(C#N)C(=O)Nc1ccc(C(F)(F)F)cc1 [FK-778, N-(4-trifluoromethyl)-phenyl-2-cyano-3-hydroxy-hept-2-en-6-in-carboxylic acidamide]	able to reverse mechanical allodynia	3.1 grams	significantly higher	statistically significant difference between the treated animals and the vehicle controls remained	able to reverse cold allodynia	responded significantly shorter	responded significantly shorter	differences remained unchanged		
Cc1cc(NC(=O)/C(C#N)=C(\O)C2CC2)ccc1C(F)(F)F [HR-325, 1(3-methyl-4-trifluoromethylphenyl-carbamoyl)-2-cyclopropyl-2oxo-propionitrile]		3.0 grams							2.7 grams	54 grams
